US20140081017A1, “Histone Deacetylase Inhibitors for Enhancing Activity of Antifungal Agents” (METHYLGENE INC., priority 2012, published 2014)
Values after ≈ are worked out from the molar mass of the structure shown. Like-named read-outs stand apart in the source and are kept apart here.

Key:
[1] = test system: C. glabrata; test: Checkerboard FIC assay in combination with fluconazole (MIC alone and in combination, FICI); assay type: cell-based, Candida glabrata; conditions: for FICI of combination resulting in fluconazole MIC of: 2 ug/mL / FICI of combination resulting in fluconazole MIC of: 4 ug/mL / FICI of combination resulting in fluconazole MIC of: 8 ug/mL: FICI calculated using a fluconazole MIC of 16 μg/mL; for FICI of combination resulting in fluconazole MIC of: 2 ug/mL (value in parenthesis) / FICI of combination resulting in fluconazole MIC of: 4 ug/mL (value in parenthesis) / FICI of combination resulting in fluconazole MIC of: 8 ug/mL (value in parenthesis): FICI using a fluconazole MIC of 128 μg/mL; for MIC: Nakaseomyces glabratus; for Multiple of compound MIC to synergize fluconazole MIC to 2 ug/mL / Multiple of compound MIC to synergize fluconazole MIC to 4 ug/mL / Multiple of compound MIC to synergize fluconazole MIC to 8 ug/mL: concentration in combination as multiple of the compound's MIC alone; for Multiple of compound MIC to synergize fluconazole MIC to 2 ug/mL: fluconazole MIC 2 ug/mL; for Multiple of compound MIC to synergize fluconazole MIC to 4 ug/mL: fluconazole MIC 4 ug/mL; for Multiple of compound MIC to synergize fluconazole MIC to 8 ug/mL: fluconazole MIC 8 ug/mL; for Concentration of Methylgene compound to synergize fluconazole MIC to 2 ug/mL / Concentration of Methylgene compound to synergize fluconazole MIC to 4 ug/mL / Concentration of Methylgene compound to synergize fluconazole MIC to 8 ug/mL: in combination with fluconazole; for Concentration of Methylgene compound to synergize fluconazole MIC to 2 ug/mL: fluconazole MIC lowered to 2 ug/mL; for Concentration of Methylgene compound to synergize fluconazole MIC to 4 ug/mL: fluconazole MIC lowered to 4 ug/mL; for Concentration of Methylgene compound to synergize fluconazole MIC to 8 ug/mL: fluconazole MIC lowered to 8 ug/mL
Procedure, shortened: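 C. glabrata was tested by CLSI broth microdilution checkerboard, crossing 2-fold dilutions of compound with 2-fold dilutions of fluconazole. The medium was RPMI with 0.165 M MOPS at pH 7.0, inoculated from a 0.5 McFarland suspension diluted 1:100, then incubated about 48 h at 35 °C. Single-agent MICs gave the FIC and FICI values.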

[2] = test system: Candida parapsilosis; test: Minimal Inhibitory Concentration (MIC) assay, broth microdilution per CLSI; assay type: cell-based; conditions: Lodderomyces parapsilosis, read-out: Minimum Inhibitory Concentrations against Yeast Isolates, Candida parapsilosis;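 note: two read times 24 hr and 48 hr of incubation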
Procedure, shortened: (§1)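 Steps: overnight yeast growth on Sabouraud dextrose agar at 35° C; 0.5 McFarland saline suspension diluted 1:100 in RPMI (0.165 M MOPS, pH 7.0); inoculation into twofold compound dilutions; incubation 24-48 hr at 35° C; MIC scored as lowest concentration without visible growth.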

[3] = test system: Candida glabrata; test: as above; assay type: cell-based; conditions: Nakaseomyces glabratus, read-out: Minimum Inhibitory Concentrations against Yeast Isolates, Candida glabrata;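 note: two read times 24 hr and 48 hr of incubation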
Procedure, shortened: as §1

[4] = test system: Candida albicans; test: as above; assay type: cell-based; conditions: Candida albicans, read-out: Minimum Inhibitory Concentrations against Yeast Isolates, Candida albicans;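 note: two read times 24 hr and 48 hr of incubation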
Procedure, shortened: as §1

[5] = MIC of the example compound alone against C. glabrata in the checkerboard assay, approximately 48 hr, read-out: Methylgene MIC
[6] = test compound alone, C. glabrata, approx. 48 hr at 35° C., read-out: Compound MIC
[7] = 24 hr reading (first value of cell 24 hr/48 hr)
[8] = 48 hr reading (second value of cell 24 hr/48 hr)

Compound	FICI of combination resulting in fluconazole MIC of: 2 ug/mL ([1]; C. glabrata)	FICI of combination resulting in fluconazole MIC of: 4 ug/mL ([1]; C. glabrata)	FICI of combination resulting in fluconazole MIC of: 8 ug/mL ([1]; C. glabrata)	FICI of combination resulting in fluconazole MIC of: 2 ug/mL (value in parenthesis) ([1]; C. glabrata)	FICI of combination resulting in fluconazole MIC of: 4 ug/mL (value in parenthesis) ([1]; C. glabrata)	FICI of combination resulting in fluconazole MIC of: 8 ug/mL (value in parenthesis) ([1]; C. glabrata)	MIC [1, 5] [µg/mL]	MIC [1, 6] [µg/mL]	Multiple of compound MIC to synergize fluconazole MIC to 2 ug/mL [1]	Multiple of compound MIC to synergize fluconazole MIC to 4 ug/mL [1]	Multiple of compound MIC to synergize fluconazole MIC to 8 ug/mL [1]	Concentration of Methylgene compound to synergize fluconazole MIC to 2 ug/mL ([1]; C. glabrata) [µg/mL]	Concentration of Methylgene compound to synergize fluconazole MIC to 4 ug/mL ([1]; C. glabrata) [µg/mL]	Concentration of Methylgene compound to synergize fluconazole MIC to 8 ug/mL ([1]; C. glabrata) [µg/mL]	MIC [2, 7] [µg/mL]	MIC [2, 8] [µg/mL]	MIC [3, 7] [µg/mL]	MIC [3, 8] [µg/mL]	MIC [4, 7] [µg/mL]	MIC [4, 8] [µg/mL]
CC(CCCc1ccc(CC(=O)NO)cc1)c1ccccc1 (stereo not drawn) [Example 30, N-hydroxy-2-(4-(4-phenylpentyl)phenyl)acetamide]	0.563	0.365	0.490	0.516	0.271	0.303	0.5	0.5	(½x)	(¼x)	(¼x)	0.25	0.12	0.12	0.12 (≈ 0.403 µM)	0.25 (≈ 0.841 µM)	0.25 (≈ 0.841 µM)	0.5 (≈ 1.68 µM)	0.5 (≈ 1.68 µM)	0.5 (≈ 1.68 µM)
O=C(Cc1ccc(CCCCC2CCCCC2)cc1)NO [Example 8, 2-(4-(4-cyclohexylbutyl)phenyl)-N-hydroxyacetamide]	0.543	0.605	0.730	0.496	0.511	0.543	0.25	0.25	(½x)	(½x)	(½x)	0.12	0.12	0.12	0.12 (≈ 0.415 µM)	0.25 (≈ 0.864 µM)	0.12 (≈ 0.415 µM)	0.12 (≈ 0.415 µM)	0.25 (≈ 0.864 µM)	0.25 (≈ 0.864 µM)
COCCOCCOCCNC(=O)c1ccc(CCCCc2ccc(CC(=O)NO)cc2)cc1 [Example 11, 4-(4-(4-(2-(hydroxyamino)-2-oxoethyl)phenyl)butyl)-N-(2-(2-(2-methoxyethoxy)ethoxy)ethyl)benzamide]	0.375	0.375	0.625	0.266	0.156	0.188	8	8	(¼x)	(⅛x)	(⅛x)	2	1	1	> 64	> 64	> 64	> 64	> 64	> 64
CC(C)(C(=O)NO)c1ccc(CCCCc2ccccc2)cc1 [Example 56, N-hydroxy-2-methyl-2-(4-(4-phenylbutyl)phenyl)propanamide]	0.563	0.625	0.490	0.516	0.531	0.303	0.5	0.5	(½x)	(½x)	(¼x)	0.25	0.25	0.12	> 2	> 2	0.25 (≈ 0.803 µM)	0.5 (≈ 1.61 µM)	> 2	> 2
O=C(Cc1ccc(CCCCc2ccc(-c3ccccc3)cc2)cc1)NO [Example 5, 2-(4-(4-(biphenyl-4-yl)butyl)phenyl)-N-hydroxyacetamide]	0.125	0.155	0.280	0.078	0.061	0.093	4	4	( 1/16x)	( 1/16x)	( 1/16x)	0.25	0.12	0.12	> 8	> 8	0.5 (≈ 1.39 µM)	8 (≈ 22.3 µM)	> 8	> 8
O=C(Cc1ccc(CCCCc2ccc(O)cc2)cc1)NO [Example 15, N-hydroxy-2-(4-(4-(4-hydroxyphenyl)butyl)phenyl)acetamide]	0.375	0.500	0.625	0.266	0.281	0.188	8	8	(¼x)	(¼x)	(⅛x)	2	2	1	> 16	> 16	> 8	> 8	> 16	> 16
